- melting point: 200 to 202 °C
SMILES: CC(C)c1[nH]n(-c2c(Cl)cc(Cl)cc2Cl)c2nc(Cc3ccc(NC(=O)OCCCN(C)C)cc3)nc(=O)c1-2 [Example 1, 1-(2,4,6-trichlorophenyl)-3-isopropyl-6-(4-(3-(N,N-dimethylamino)prop-1-yloxycarbonylamino)benzyl)pyrazolo[3,4-d]pyrimidin-4-one]
